Reference: patent publication US20210283109A1, “HETEROCYCLIC DIAMIDINES” (Friedrich-Alexander-Universität Erlangen-Nürnberg, priority 2016, published 2021)

Experiments:
[1] = tested on: Dermal fibroblasts from patients with SSc; experiment: Formazan toxicity assay of fibroblasts; assay type: cell-based, human; settings: dermal fibroblasts from SSc patients cultured with different concentrations of compound
Protocol: (§1) Dermal fibroblasts from patients with SSc were cultured in the presence of DB1976. […] Moreover, in the presence of DB1976 differentiation of fibroblasts into matrix-producing myofibroblasts is inhibited (FIG. 3C). Bleomycin induced skin fibrosis was induced by local injections of bleomycin in C57Bl/6 mice (10 weeks of age, mixed genders) for four weeks. Subcutaneous injections of 0.9% NaCl served as a control. DB1976 was administered into tail vein every second day in different concentrations (1 mg/kg body weight; 5 mg/kg body weight) after first application of bleomycin. […] Bleomycin-induced pulmonary fibrosis was induced by a single intratracheal application of bleomycin in C57Bl/6 mice (12 weeks of age, males) using a high pressure syringe (Penn-Century, Wyndmoor, Pa., USA). […]
(§2) (A) Formazan toxicity assay of fibroblasts incubated with different concentrations of DB1976 as indicated; (B) human diseased dermal fibroblasts untreated or stimulated with either TGF-β alone or TGF-β plus DB1976; collagen protein level and mRNA level of col1a1 relative to control. […] (C) Immune fluorescence microscopy of cultured fibroblasts as indicated; cells are stained with DAPI, alpha smooth muscle actin (αSMA) and stress fibers. Representative image of 5 independent experiments are shown. *p<0.05 determined by Student's t test according pretest for normality (D'Agostino-Pearson normality test).

[2] = tested on: human diseased dermal fibroblasts; experiment: Collagen release from fibroblasts after stimulation with TGF-β; assay type: cell-based; settings: compared to TGF-β alone
Protocol: as §1
as §2, with “test). […]” for “test).”

[3] = tested on: Dermal fibroblasts from patients with SSc; experiment: Differentiation of fibroblasts into matrix-producing myofibroblasts (αSMA, stress fibers, immune fluorescence microscopy); assay type: cell-based, human; settings: in the presence of compound
Protocol: as §1, §2

[4] = tested on: Bleomycin induced skin fibrosis in C57Bl/6 mice; experiment: Bleomycin induced skin fibrosis model; assay type: in vivo; settings: tail vein every second day, 1 and 5 mg/kg body weight, bleomycin four weeks; concentration dependent
Protocol: (§3) Dermal fibroblasts from patients with SSc were cultured in the presence of DB1976. […] Moreover, in the presence of DB1976 differentiation of fibroblasts into matrix-producing myofibroblasts is inhibited (FIG. 3C). Bleomycin induced skin fibrosis was induced by local injections of bleomycin in C57Bl/6 mice (10 weeks of age, mixed genders) for four weeks. Subcutaneous injections of 0.9% NaCl served as a control. DB1976 was administered into tail vein every second day in different concentrations (1 mg/kg body weight; 5 mg/kg body weight) after first application of bleomycin. […] Bleomycin-induced pulmonary fibrosis was induced by a single intratracheal application of bleomycin in C57Bl/6 mice (12 weeks of age, males) using a high pressure syringe (Penn-Century, Wyndmoor, Pa., USA). Instillation of equal volumes of 0.9% NaCl served as a control. […] Carbon tetrachloride CCl4-induced hepatic fibrosis was induced by intraperitoneal (i.p.) injections of CCl4 in […] mice (14 weeks of age, mixed genders) (Palumbo-Zerr et al. Nature Medicine 21, 150-158 (2015)) twice weekly. […] DB1976 was also effective when initiated after fibrosis had already become manifest. In those experiments, mice were pre-challenged with bleomycin for 3 weeks to induce robust skin fibrosis. After 3 weeks, treatment with DB1976 was initiated, while injections with bleomycin were continued. […] Therapeutic application of DB1976 ameliorated skin thickness, collagen content and myofibroblast counts in the skin (FIG. 6A-F).
FIG. 4: Model of bleomycin induced skin fibrosis. (A) Representative images of trichrome staining of skin tissue from control mice (Wild-type (WT) treated with sodium chloride; n≥7), bleomycin treated mice (n=10) and mice treated with bleomycin and different concentrations of DB1976 (n≥8 each); (B;C) mRNA collagen1a1 or collagen1a2 expression; (D) dermal thickness; (E) quantification of α-smooth muscle actin-positive myofibroblasts; (F) hydroxyproline content.

[5] = tested on: Bleomycin-induced pulmonary fibrosis in C57Bl/6 mice; experiment: Bleomycin-induced pulmonary fibrosis model; assay type: in vivo; settings: lung; compared to mice that received bleomycin without compound
Protocol: as §3
(§4) FIG. 5: Model of bleomycin induced lung and CCI-4 induced liver fibrosis. (A) Representative images of sirius red staining of lung tissue from control mice (Wild-type (WT) treated with sodium chloride; n=4), bleomycin treated mice (n≥7) and mice treated with bleomycin and DB1976 (n=≥5); (B) quantification of the fibrotic area; (C, D) mRNA expression level of col1a1 and col1a2; (E) hydroxyproline content.

[6] = tested on: CCl4-induced hepatic fibrosis in mice; experiment: Carbon tetrachloride CCl4-induced hepatic fibrosis model; assay type: in vivo; settings: CCl4 i.p. twice weekly
Protocol: as §3, §4

[7] = tested on: pre-established bleomycin induced skin fibrosis in mice; experiment: Regression of pre-established bleomycin induced skin fibrosis; assay type: in vivo; settings: 6 weeks of bleomycin, treatment for the last 3 weeks
Protocol: as §3
FIG. 6: Regression of pre-established bleomycin induced skin fibrosis by treatment with DB1976. Mice were pre-challenged with bleomycin for 3 weeks to induce robust skin fibrosis. After 3 weeks, treatment with DB1976 was initiated, while injections with bleomycin were continued. After a total of 6 weeks of bleomycin and 3 weeks of treatment with DB1976, the extent of fibrosis was assessed. (A) Representative images of trichrome staining of skin tissue from control mice (Wild-type (WT) treated with sodium chloride; n≥4), 3 weeks bleomycin and afterwards 3 weeks sodium chloride treated mice (n≥8), bleomycin treated mice (n≥8) and mice treated with bleomycin and different concentrations of DB1976 (n≥3 each); (B;C) mRNA expression level of col1a1 and col1a2; (D) dermal thickness; (E) quantification of α-smooth muscle actin-positive myofibroblasts; (F) hydroxyproline content.

[8] = tested on: mice; experiment: Tolerability of treatment in mice; assay type: in vivo
Protocol: Dermal fibroblasts from patients with SSc were cultured in the presence of DB1976. […] Moreover, in the presence of DB1976 differentiation of fibroblasts into matrix-producing myofibroblasts is inhibited (FIG. 3C). Bleomycin induced skin fibrosis was induced by local injections of bleomycin in C57Bl/6 mice (10 weeks of age, mixed genders) for four weeks. Subcutaneous injections of 0.9% NaCl served as a control. DB1976 was administered into tail vein every second day in different concentrations (1 mg/kg body weight; 5 mg/kg body weight) after first application of bleomycin. […] Bleomycin-induced pulmonary fibrosis was induced by a single intratracheal application of bleomycin in C57Bl/6 mice (12 weeks of age, males) using a high pressure syringe (Penn-Century, Wyndmoor, Pa., USA). Instillation of equal volumes of 0.9% NaCl served as a control. […] Carbon tetrachloride CCl4-induced hepatic fibrosis was induced by intraperitoneal (i.p.) injections of CCl4 in […] mice (14 weeks of age, mixed genders) (Palumbo-Zerr et al. Nature Medicine 21, 150-158 (2015)) twice weekly. […] DB1976 was also effective when initiated after fibrosis had already become manifest. In those experiments, mice were pre-challenged with bleomycin for 3 weeks to induce robust skin fibrosis. After 3 weeks, treatment with DB1976 was initiated, while injections with bleomycin were continued. […]

[9] = tested on: apoptosis; experiment: Apoptosis by staining for cleaved caspase-3 or TUNEL assays
[10] = tested on: Cancer associated fibroblasts (CAFs); experiment: Matrix production of cancer associated fibroblasts activated by TGF-β; assay type: cell-based, human; settings: cultured with compound for 96 h, compared to CAFs without compound
Excerpt: Cancer associated fibroblasts (CAFs) are associated with cancer cells at all stages of cancer progression, and their structural and functional contributions to this process are well known. This implies that CAFs have a prominent role in the progression, growth and spread of cancers and represent an important target for cancer therapies.
FIG. 7: DB1976 inhibits collagen production of cancer associated fibroblasts (CAFs). (A) Quantification of PU.1-expressing fibroblasts in healthy colon tissue compared to tumor tissue (colorectal carcinoma). Cells are counted per high power field (HPF). (B) collagen production of CAFs assessed by western blot analysis; PU.1, collagen and β-actin expression in response to stimulation w/o TGF-β in the presence and absence of DB1976; representative blots of 6 independent experiments are shown. […] (C) Immune fluorescence microscopy of fibroblasts from healthy tissue (HC) and CAFs cultured w/o DB1976; DAPI and alpha smooth muscle actin (αSMA) are stained. Representative images of 5 independent experiments are shown. *p<0.05; **p<0.01 determined by Mann-Whitney U-test for non-parametric data.

[11] = tested on: PU.1; settings: cited from earlier work

SMILES: N=C(N)c1ccc2nc(-c3ccc(-c4nc5ccc(C(=N)N)cc5[nH]4)[se]3)[nH]c2c1 [DB1976]
- toxic effects in formazan toxicity assays [1]: did not observe toxic effects
- collagen release from fibroblasts [2]: strong reduction
- differentiation of fibroblasts into matrix-producing myofibroblasts [3]: inhibited
- collagen release assessed by col1a2 mRNA expression [4]: significantly decreased
- collagen release assessed by hydroxyproline content of the skin [4]: significantly decreased
- myofibroblast differentiation [4]: significantly decreased
- skin thickening [4]: significantly decreased
- Ashcroft score [5]: reduced
- collagen expression (hydroxyproline content) [5]: decreased
- collagen expression (mRNA) [5]: decreased
- myofibroblast count [5]: decreased
- volume of fibrotic area [5]: decreased
- fibrotic tissue remodeling of the liver [6]: significant less
- collagen production ([6]; liver): less
- myofibroblast differentiation ([6]; liver): less
- collagen content in the skin [7]: ameliorated
- myofibroblast counts in the skin [7]: ameliorated
- skin thickness [7]: ameliorated
- extent of fibrosis ([7]; compared to controls): significantly reduced
- clinical evidence of toxicity [8]: no clinical evidence of toxicity
- tolerability of treatment [8]: well-tolerated
- apoptosis by TUNEL assays [9]: did not detect any evidence of apoptosis
- apoptosis in staining for cleaved caspase-3 [9]: did not detect any evidence of apoptosis
- alpha smooth muscle actin (αSMA) [10]: significant reduction
- collagen production [10]: significant reduction
- stress fiber expression [10]: significant reduction
- inhibition of PU.1-binding to the DNA of PU.1 target genes [11]: potent inhibitor
